# Data as given in patent US20260306460A1, “COMPOSITION FOR REMOVING AND INHIBITING SENESCENT CELLS, AND USES THEREOF” (LIFECEUTIX CO., LTD., priority 2023, published 2026).
# Assays:
# [1] = tested on: obesity-induced aged C57BL6J mice; assay: p16, MMP3, IL6 mRNA in groin fat of obese aged mice given senescent cells killed by test compound, Example 16; assay type: in vivo, mouse; settings: no administration = 100%
# Excerpt: To obtain preadipocytes, groin fat tissue was collected from an 8-week-old female C57BL6J mouse (KRIBB Laboratory Animal Resource Center). The fat tissue was cut into small pieces and treated with collagenase to decompose the fat tissue, then centrifuged to collect the stromal vascular fraction (SVF) containing preadipocytes. It was washed with a washing medium (HBSS, GenDEPOT; 3.5% Albumin Fraction V, GenDEPOT; 100 U/ml Penicillin & Streptomycin, Invitrogen), mixed again, and extracted by filtering through a 100 μm nylon mesh. The isolated preadipocytes were cultured in the designated medium (DMEM, GenDEPOT; 20% FBS, GenDEPOT; 100 U/ml Penicillin & Streptomycin, Invitrogen). In the same manner as Example 1 of WO2023-085787 A1, cells were treated with doxorubicin at a concentration of 250 nM for 24 hours and cultured for an additional 21 days to induce cell senescence. […] By treating the test compound in the same manner as in Example 13, it was confirmed using an optical microscope that the death of most senescent cells was induced. […] Afterwards, the mouse was sacrificed in the same manner as in Example 7-2 of WO2023-085787 A1, total RNA was extracted from the groin fat tissue, and qRT-PCR was performed and analyzed using the synthesized cDNA. […] The mRNA amount of p16, MMP3, and IL6 without administration of senescent cells whose death was induced by the test compound were calculated as 100%, and the amount of p16, MMP3, and IL6 after administration of the senescent cells whose death was induced by the test compound were compared with them. […] The amount of activity evaluation without administration of senescent cells whose death was induced by the test compound was calculated as 100% and compared it with the amount of activity evaluation after administration of senescent cells whose death was induced by the test compound. […]
# [2] = tested on: doxorubicin-induced aged C57BL6J mice; assay: SA-β-gal staining in doxorubicin-aged mice, Example 22-3, Table 32; assay type: in vivo, mouse; settings: staining area, untreated aged = 100
# Description: Eight-week-old male C57BL6J mice (KRIBB Laboratory Animal Resource Center) were acclimated to the experimental environment for one week. Afterwards, the anticancer agent doxorubicin was administered intraperitoneally at a concentration of 10 mg/kg, inducing aging for more than 10 days. The aging-induced mice were randomly assigned to experimental and control groups. LX-403 was mixed with a 10% ethanol solution of PEG400 and administered orally at a concentration of 25 mg/kg or intradermally at a concentration of 1 μM for 21 days. LX-1801 was mixed in distilled water with 4% DMSO, 30% PEG300, and 5% Tween80 and administered intradermally at a concentration of 0.4 μM daily for 21 days. LX-2001 was mixed in PBS and administered intradermally at a concentration of 2 μM daily for 21 days. LX-2002 was mixed in distilled water with 4% DMSO, 30% PEG300, and 5% Tween80 and administered intradermally at a concentration of 2 μM daily for 21 days. […] LX-2005 was mixed in distilled water with 4% DMSO, 30% PEG300, and 5% Tween80 and administered intradermally at a concentration of 90 μM daily for 21 days. LX-2007 was mixed in distilled water with 4% DMSO, 30% PEG300, and 5% Tween80 and administered intradermally at a concentration of 90 μM daily for 21 days. […] LX-3002 was mixed in distilled water with 4% DMSO, 30% PEG300, and 5% Tween80 and administered orally at a concentration of 10 mg/kg daily for 21 days. […] LX-5411 was mixed in 5% phosphate-buffered saline (PBS) and administered orally at a concentration of 10 mg/kg daily for 21 days or intradermally at a concentration of 3 μM. LX-5701 was mixed in PBS and administered orally at a concentration of 360 mg/kg daily for 21 days. LX-6807 was mixed in saline and administered intraperitoneally at a concentration of 1 mg/kg daily for 21 days. The control group received only the solution in the same volume. After the end of drug administration, the methods described in each example below were performed.
# Mice were sacrificed as described in Example 7-3 of WO2023-085787 A1, and tissue sections were prepared from each organ tissue site and stained for the aging-related marker SA-β-gal.
# [3] = senescent preadipocytes killed by test compound sc
SMILES,"IL6 mRNA [1, 3]","MMP3 mRNA [1, 3]","p16 mRNA ([1]; senescent preadipocytes killed by test compound, 5×10^5 cells sc)","SA-β-gal (%), Kidney ([2]; Kidney)","SA-β-gal (%), Liver ([2]; Liver)","SA-β-gal (%), Lung ([2]; Lung)","SA-β-gal (%), eWAT ([2]; eWAT)"
S=C(N/N=C1\CCCc2cccnc21)N1CCN(c2ccccn2)CC1 [LX-801],79.4 (±4.6) %,81.7 (±2.9) %,79.8 (±3.4) %,,,,
O=C1C2CCN(CC2)C1CNC(=O)C(F)(F)F (stereo not shown) [LX-5701],,,,64 (±9.7) %,43 (±14.2) %,68 (±14.8) %,66 (±10.5) %
